Measurements from ChEMBL document CHEMBL5512631, “Research progress of DDR1 inhibitors in the treatment of multiple human diseases” (Eur J Med Chem, 2024).
Converted amounts (≈) assume the structure as drawn. Values belong to the compound of their own block, whether it stands above or below them.

Key:
[1] = biological target: T1, Epithelial discoidin domain-containing receptor 1 (Homo sapiens, UniProt Q08345); experiment: Inhibition of DDR1 (unknown origin) at 10 uM by DiscoverX KINOMEscan assay relative to control
T1 sequence (Q08345 whole entry, the tested form may be a part): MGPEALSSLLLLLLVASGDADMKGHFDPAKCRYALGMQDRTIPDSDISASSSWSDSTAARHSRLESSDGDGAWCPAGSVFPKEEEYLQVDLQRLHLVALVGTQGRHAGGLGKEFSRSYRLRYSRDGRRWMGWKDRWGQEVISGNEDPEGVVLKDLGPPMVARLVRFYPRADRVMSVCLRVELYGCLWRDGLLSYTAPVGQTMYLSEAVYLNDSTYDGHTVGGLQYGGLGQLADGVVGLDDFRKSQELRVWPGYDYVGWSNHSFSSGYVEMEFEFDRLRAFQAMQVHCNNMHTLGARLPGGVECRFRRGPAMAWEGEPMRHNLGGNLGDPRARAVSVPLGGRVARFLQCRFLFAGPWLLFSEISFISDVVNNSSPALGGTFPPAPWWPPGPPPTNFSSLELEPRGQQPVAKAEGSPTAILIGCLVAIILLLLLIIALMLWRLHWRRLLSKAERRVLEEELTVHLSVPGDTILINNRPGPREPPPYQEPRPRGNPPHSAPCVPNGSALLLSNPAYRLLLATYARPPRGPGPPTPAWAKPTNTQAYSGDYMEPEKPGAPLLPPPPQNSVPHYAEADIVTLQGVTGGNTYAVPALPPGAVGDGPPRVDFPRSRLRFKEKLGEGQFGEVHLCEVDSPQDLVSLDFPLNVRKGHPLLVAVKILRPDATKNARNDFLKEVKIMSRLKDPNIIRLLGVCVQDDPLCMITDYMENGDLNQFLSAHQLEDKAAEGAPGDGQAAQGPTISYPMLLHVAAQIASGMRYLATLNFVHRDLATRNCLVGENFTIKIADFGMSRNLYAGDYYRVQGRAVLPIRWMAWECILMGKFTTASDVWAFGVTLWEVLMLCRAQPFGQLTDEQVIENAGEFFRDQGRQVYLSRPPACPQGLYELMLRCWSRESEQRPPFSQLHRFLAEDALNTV

[2] = Microsomal stability in rat liver microsomes assessed as intrinsic clearance; format: ADME, Microsome
[3] = biological target: T2, Discoidin domain-containing receptor 2 (Homo sapiens, UniProt Q16832); experiment: Inhibition of human DDR2 by discoverX kinome scan assay
T2 sequence (Q16832 whole entry): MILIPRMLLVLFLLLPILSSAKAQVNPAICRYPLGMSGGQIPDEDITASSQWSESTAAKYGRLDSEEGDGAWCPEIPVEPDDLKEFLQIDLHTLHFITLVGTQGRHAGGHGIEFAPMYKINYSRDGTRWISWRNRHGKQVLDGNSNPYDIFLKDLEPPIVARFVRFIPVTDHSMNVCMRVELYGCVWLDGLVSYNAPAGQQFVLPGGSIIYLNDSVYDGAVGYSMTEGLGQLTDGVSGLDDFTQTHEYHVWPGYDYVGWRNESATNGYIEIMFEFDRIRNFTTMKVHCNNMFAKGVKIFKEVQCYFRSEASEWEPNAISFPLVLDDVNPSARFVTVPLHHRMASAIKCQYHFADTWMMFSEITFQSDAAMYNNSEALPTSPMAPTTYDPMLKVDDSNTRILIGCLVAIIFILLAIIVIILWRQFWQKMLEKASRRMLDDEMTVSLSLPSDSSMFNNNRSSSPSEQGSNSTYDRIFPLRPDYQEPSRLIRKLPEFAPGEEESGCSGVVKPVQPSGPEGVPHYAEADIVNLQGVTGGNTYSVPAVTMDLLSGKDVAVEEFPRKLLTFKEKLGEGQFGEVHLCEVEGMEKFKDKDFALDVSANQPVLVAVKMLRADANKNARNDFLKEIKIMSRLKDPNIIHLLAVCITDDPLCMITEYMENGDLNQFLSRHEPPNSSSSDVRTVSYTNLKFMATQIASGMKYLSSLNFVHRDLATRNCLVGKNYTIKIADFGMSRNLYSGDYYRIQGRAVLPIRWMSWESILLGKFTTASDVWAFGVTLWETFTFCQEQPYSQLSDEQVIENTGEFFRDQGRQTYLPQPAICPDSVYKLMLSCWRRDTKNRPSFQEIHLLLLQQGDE

[4] = biological target: Vascular endothelial growth factor receptor 2 (Homo sapiens) (UniProt P35968); experiment: Inhibition of KDR (unknown origin) at 100 nM by ADP-Glo assay relative to control
Sequence of Vascular endothelial growth factor receptor 2 (Homo sapiens) (P35968 whole entry): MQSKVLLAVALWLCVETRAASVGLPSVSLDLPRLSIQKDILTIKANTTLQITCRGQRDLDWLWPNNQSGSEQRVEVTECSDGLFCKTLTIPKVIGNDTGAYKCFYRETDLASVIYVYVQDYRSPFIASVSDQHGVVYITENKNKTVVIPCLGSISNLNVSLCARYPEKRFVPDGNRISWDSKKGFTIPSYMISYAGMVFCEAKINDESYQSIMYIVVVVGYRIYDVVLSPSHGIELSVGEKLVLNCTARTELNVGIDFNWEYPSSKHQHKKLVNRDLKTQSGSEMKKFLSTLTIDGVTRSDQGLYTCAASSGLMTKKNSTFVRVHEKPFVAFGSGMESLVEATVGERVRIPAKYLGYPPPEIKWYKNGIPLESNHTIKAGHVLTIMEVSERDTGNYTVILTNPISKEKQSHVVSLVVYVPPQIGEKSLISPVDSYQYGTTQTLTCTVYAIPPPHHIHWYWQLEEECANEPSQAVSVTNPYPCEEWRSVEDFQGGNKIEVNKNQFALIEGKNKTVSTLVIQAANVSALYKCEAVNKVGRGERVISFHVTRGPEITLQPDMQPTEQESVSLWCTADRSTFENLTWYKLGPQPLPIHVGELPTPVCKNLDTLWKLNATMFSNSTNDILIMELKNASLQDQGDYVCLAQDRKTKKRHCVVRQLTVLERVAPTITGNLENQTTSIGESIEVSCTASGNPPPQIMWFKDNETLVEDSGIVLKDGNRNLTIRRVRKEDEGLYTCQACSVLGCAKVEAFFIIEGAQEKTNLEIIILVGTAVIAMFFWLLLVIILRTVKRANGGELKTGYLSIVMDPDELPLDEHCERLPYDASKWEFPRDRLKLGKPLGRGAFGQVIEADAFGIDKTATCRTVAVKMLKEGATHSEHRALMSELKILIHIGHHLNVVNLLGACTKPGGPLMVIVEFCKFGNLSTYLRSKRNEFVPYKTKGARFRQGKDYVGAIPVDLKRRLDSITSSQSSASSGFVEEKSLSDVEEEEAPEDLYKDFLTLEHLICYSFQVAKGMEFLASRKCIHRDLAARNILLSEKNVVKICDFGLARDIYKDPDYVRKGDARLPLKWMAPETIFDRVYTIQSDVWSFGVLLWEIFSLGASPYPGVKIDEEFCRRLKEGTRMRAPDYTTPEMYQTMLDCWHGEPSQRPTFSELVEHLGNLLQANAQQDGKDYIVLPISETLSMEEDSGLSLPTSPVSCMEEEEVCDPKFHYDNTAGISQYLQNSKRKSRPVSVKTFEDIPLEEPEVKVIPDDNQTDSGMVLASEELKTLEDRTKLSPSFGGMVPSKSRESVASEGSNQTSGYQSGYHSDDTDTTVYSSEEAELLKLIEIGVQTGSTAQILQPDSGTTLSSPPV

[5] = Clearance in C57BL/6 mouse at 1 mg/kg, iv measured upto 8 hrs by HPLC analysis; format: ADME, organism-based; conditions: in vivo
[6] = Clearance in human liver microsomes measured upto […] by HPLC-MS/MS analysis; format: ADME, Microsome
[7] = biological target: T1, Epithelial discoidin domain-containing receptor 1; experiment: Inhibition of GST-tagged recombinant DDR1 (unknown origin) expressed in Escherichia coli BL21 by DiscoverX KINOMEscan assay
[8] = biological target: T2, Discoidin domain-containing receptor 2; experiment: Inhibition of GST-tagged recombinant DDR2 (unknown origin) expressed in Escherichia coli BL21 by DiscoverX KINOMEscan assay
U2OS = experiment: Antiproliferative activity against human U2OS cells […] assessed as reduction in cell viability incubated for 24 hrs by MTT assay; format: functional, cell-based
[9] = biological target: T2, Discoidin domain-containing receptor 2; experiment: Inhibition of DDR2 (unknown origin) by ADP-Glo assay
[10] = biological target: T1, Epithelial discoidin domain-containing receptor 1; experiment: Binding affinity to DDR1 (unknown origin) assessed as dissociation constant
[11] = biological target: T1, Epithelial discoidin domain-containing receptor 1; experiment: Inhibition of DDR1 (unknown origin)
[12] = biological target: T2, Discoidin domain-containing receptor 2; experiment: Inhibition of flag-tagged DDR2 (unknown origin) by TR-FRET assay
[13] = biological target: Proto-oncogene tyrosine-protein kinase receptor Ret (Homo sapiens) (UniProt P07949); experiment: Inhibition of RET (unknown origin) at 100 uM using Poly(4:1 Glu, Tyr) as substrate in presence of ATP by absorbance based analysis relative to control
Sequence of Proto-oncogene tyrosine-protein kinase receptor Ret (Homo sapiens) (P07949 whole entry): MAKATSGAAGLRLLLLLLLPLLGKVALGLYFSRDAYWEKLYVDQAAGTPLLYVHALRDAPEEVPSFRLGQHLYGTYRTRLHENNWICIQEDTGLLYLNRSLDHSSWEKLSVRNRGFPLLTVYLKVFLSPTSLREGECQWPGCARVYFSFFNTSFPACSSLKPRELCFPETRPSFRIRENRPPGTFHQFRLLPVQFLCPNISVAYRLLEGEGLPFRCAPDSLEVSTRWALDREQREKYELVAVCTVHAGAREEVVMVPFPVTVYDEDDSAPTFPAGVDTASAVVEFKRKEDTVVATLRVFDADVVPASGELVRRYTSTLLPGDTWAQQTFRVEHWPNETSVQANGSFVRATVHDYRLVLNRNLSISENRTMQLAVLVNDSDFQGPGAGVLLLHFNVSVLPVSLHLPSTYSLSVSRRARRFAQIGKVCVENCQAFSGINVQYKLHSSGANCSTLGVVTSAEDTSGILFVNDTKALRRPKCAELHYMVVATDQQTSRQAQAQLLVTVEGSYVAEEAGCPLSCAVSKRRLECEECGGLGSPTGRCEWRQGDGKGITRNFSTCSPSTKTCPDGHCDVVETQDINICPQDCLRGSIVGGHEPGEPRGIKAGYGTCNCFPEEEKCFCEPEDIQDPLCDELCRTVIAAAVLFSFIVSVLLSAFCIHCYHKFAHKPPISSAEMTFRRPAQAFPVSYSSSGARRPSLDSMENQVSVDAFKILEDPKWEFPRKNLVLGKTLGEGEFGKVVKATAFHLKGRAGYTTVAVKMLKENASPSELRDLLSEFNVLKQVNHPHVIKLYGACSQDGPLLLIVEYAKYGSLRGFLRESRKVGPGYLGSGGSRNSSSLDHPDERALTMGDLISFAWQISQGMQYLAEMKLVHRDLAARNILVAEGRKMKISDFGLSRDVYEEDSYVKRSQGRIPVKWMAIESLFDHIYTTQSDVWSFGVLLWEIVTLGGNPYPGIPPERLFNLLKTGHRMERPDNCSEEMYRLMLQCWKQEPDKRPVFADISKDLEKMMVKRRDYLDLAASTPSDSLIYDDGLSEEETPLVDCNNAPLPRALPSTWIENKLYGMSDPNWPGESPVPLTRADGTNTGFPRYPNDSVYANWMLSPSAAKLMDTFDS

[14] = biological target: Receptor-type tyrosine-protein kinase FLT3 (Homo sapiens) (UniProt P36888); experiment: Inhibition of FLT3 (unknown origin) at 100 nM relative to control
Sequence of Receptor-type tyrosine-protein kinase FLT3 (Homo sapiens) (P36888 whole entry, the tested form may be a part): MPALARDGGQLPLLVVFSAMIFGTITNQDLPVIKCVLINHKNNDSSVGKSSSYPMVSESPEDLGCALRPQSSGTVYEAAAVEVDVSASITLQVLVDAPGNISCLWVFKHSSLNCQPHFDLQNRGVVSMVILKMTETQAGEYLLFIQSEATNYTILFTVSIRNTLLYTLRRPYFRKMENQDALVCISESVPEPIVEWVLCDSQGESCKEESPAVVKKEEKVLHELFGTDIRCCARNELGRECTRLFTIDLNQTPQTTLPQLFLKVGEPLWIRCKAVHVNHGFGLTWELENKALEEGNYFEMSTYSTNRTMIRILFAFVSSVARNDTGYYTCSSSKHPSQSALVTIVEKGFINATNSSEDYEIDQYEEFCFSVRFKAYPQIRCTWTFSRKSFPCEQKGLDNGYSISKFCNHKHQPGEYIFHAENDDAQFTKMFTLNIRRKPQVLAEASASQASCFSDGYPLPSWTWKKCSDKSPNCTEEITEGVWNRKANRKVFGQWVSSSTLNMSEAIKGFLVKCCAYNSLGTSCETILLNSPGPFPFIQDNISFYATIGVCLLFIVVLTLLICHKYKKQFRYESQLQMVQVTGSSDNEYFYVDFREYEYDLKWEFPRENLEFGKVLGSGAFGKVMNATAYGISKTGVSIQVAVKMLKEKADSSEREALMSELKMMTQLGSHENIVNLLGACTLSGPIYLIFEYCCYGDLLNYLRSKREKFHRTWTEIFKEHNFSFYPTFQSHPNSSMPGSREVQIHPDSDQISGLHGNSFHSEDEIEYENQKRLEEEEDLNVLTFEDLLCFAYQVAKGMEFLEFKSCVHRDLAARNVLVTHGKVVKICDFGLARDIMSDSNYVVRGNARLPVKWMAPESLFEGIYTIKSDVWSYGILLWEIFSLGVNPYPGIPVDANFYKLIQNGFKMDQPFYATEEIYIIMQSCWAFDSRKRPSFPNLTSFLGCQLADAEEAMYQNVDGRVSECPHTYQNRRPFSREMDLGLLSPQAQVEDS

[15] = biological target: T1, Epithelial discoidin domain-containing receptor 1; experiment: Inhibition of flag-tagged DDR1 (unknown origin) by TR-FRET assay
[16] = biological target: Vascular endothelial growth factor receptor 2 (Homo sapiens) (UniProt P35968); experiment: Inhibition of KDR (unknown origin) at 100 nM relative to control
[17] = Aqueous solubility of compound in phosphate buffer at pH 6.5; format: physicochemical
[18] = biological target: T2, Discoidin domain-containing receptor 2; experiment: Inhibition of DDR2 (unknown origin) using Fluorescein-Poly GAT as substrate by TR-FRET analysis
[19] = biological target: T1, Epithelial discoidin domain-containing receptor 1; experiment: Inhibition of DDR1 (unknown origin) using Fluorescein-Poly GAT as substrate by TR-FRET analysis

IC50 [7]: 15 nM
IC50 [8]: 820 nM
SMILES: O=C(CN1CN(c2ccccc2)C2(CCN(C(=O)c3ccc4[nH]ncc4c3)CC2)C1=O)NCC(F)(F)F

clearance [5]: 103 mL/min/kg
CLH [6]: 10 µL/min/mg
SMILES: O=C(CN1C(=O)C2(CCN(C(=O)c3ccc4[nH]ncc4n3)CC2)c2c(Br)cccc21)NCC(F)(F)F

Kd [10]: 2.2 nM
IC50 [11]: 6.6 nM
SMILES: CCc1ccc(C(=O)Nc2cc(CN3CCN(C)CC3)cc(C(F)(F)F)c2)cc1-c1cccc(-c2cnc3ccnn3c2)c1

IC50 [15]: 17.2 nM
inhibition [16]: 100%
inhibition [13]: 18.6%
SMILES: O=C(Nc1cccc(C(F)(F)F)c1)c1ccc(C2CC2)c(-c2ccc3nc(Nc4cnn(C5CC5)c4)ncc3c2)c1

solubility [17]: 365 µg/mL (≈ 708 µM)
clearance [5]: 120 mL/min/kg
IC50 [7]: 18 nM
CLH [6]: 28 µL/min/mg
IC50 [8]: 858 nM
SMILES: O=C(CN1CN(c2ccccc2)C2(CCN(C(=O)c3ccc4[nH]ncc4n3)CC2)C1=O)NCC(F)(F)F

IC50 [18]: 7.04 nM
IC50 [19]: 2.26 nM
SMILES: Cc1cccc(Cl)c1NC(=O)c1cnc(Nc2cc(N3CCN(C(=O)OCCN4CCOCC4)CC3)ncn2)s1

IC50 [11]: 92.5 nM
SMILES: O=C(Cc1ccc(Cl)c(COc2ccccc2)c1)c1cccc(C(F)(F)F)c1

More lines, now with the values behind:

SMILES: CCc1cccc2c(/C=C3\NC(=S)N(c4ccc(C)c(C)c4)C3=O)cn(CC(=O)NCCOC)c12
inhibition [1]: 70.4%

SMILES: Cc1ccc(C(=O)Nc2cccc(C(F)(F)F)c2)cc1Nc1cncc(C(N)=O)c1
CLint [2]: 60 µL/min/mg

SMILES: Cc1cccc(C(=O)N[C@@H](C)c2ccc(C3CC3)c(-c3ccc4nc(Nc5cnn(C6CC6)c5)ncc4c3)c2)c1
IC50 [3]: 31 nM
inhibition [4]: 24.2%

SMILES: CNC(=O)CN1CN(c2ccccc2)C2(CCN(C(=O)c3ccc4[nH]ncc4c3)CC2)C1=O
clearance [5]: 110 mL/min/kg
CLH [6]: 12 µL/min/mg

SMILES: CCN1CCN(Cc2ccc(C(=O)Nc3ccc(C)c(Oc4ccc5c(c4)CC(=O)N5)c3)cc2C(F)(F)F)CC1
EC50 (U2OS): 86 nM

SMILES: Cc1ccc(C(=O)Nc2cccc(C(F)(F)F)c2)cc1NCc1cccc(C(N)=O)c1
IC50 [9]: 4.79 nM

SMILES: CC(=O)Nc1ccc(-n2nc3c(=O)[nH]nc(N)c3c2-c2oc3cc(C(=O)Nc4ccccc4C(F)(F)F)ccc3c2C)cc1
IC50 [11]: 10.2 nM

SMILES: Cc1ccc(C(=O)Nc2cccc(C(F)(F)F)c2)cc1-c1ccc2nc(Nc3cnn(C)c3)ncc2c1
IC50 [12]: 2.2 nM
inhibition [13]: 97.2%
inhibition [14]: 80.3%

SMILES: Cc1ccc2c(Nc3cccc(C(F)(F)F)c3)noc2c1C#Cc1cn2ncccc2n1
IC50 [7]: 10 nM

SMILES: Cc1c(-c2c3c(N)n[nH]c(=O)c3nn2-c2ccc(C(N)=O)cc2)oc2cc(C(=O)Nc3ccccc3C(F)(F)F)ccc12
IC50 [11]: 10.6 nM
